Several values for one entry are separate records, joined by “and”; a condition that tells them apart may be missing. Identical values can stand only once.
Assays:
[1] = design: method as in PMID 30274224; settings: cited from earlier work
[2] = design: method as in PMID 30274224; settings: methanolic solutions, c = 8.0 × 10^−5 M; cited from earlier work
[3] = design: method as in PMID 30274224; settings: isocratic RP-HPLC, extrapolated lipophilicity index; cited from earlier work
[4] = test system: human monocytic leukemia THP-1 cells; test: in vitro antiproliferative assay (WST-1); type: cell-based; settings: Homo sapiens, THP-1, 24 h, THP-1 cells, WST-1, 24 h; read-out: Tox IC50
Procedure: The preliminary in vitro screening of the antiproliferative effect of the investigated compounds was performed using a Water Soluble Tetrazolium salts-1 (WST-1) assay kit and a human monocytic leukemia THP-1 cell line by means of the method described recently. The principle of the WST-1 assay kit is the […] mitochondrial dehydrogenases by antiproliferative compounds. The activity of this enzyme directly correlates with the number of metabolically active cells in the culture. The antiproliferative effect was evaluated as the IC50 value (the concentration of the compound causing 50% inhibition of cell proliferation).
Human monocytic leukemia THP-1 cells were used for in vitro antiproliferative assay. Cells were obtained from the European Collection of Cell Cultures (ECACC, Salisbury, UK) and routinely cultured in RPMI (Roswell Park Memorial Institute) 1640 medium supplemented with 10% fetal bovine serum, 2% L-glutamine, 1% penicillin, and streptomycin at 37 °C with 5% CO2. Cells were passaged at approximately one-week intervals. The antiproliferative activity of the compounds was determined using a Water Soluble Tetrazolium Salts-1 (WST-1, 2-(4-iodophenyl)-3-(4-nitrophenyl)-5-(2,4-disulfophenyl)-2H-tetrazolium) assay kit (Roche Diagnostics, Mannheim, Germany) according to the manufacturer’s instructions. The tested compounds were dissolved in DMSO and added in various compound concentrations to the cell suspension in the culture RPMI 1640 medium. The maximum concentration of DMSO in the assays never exceeded 0.1%. Subsequently, the cells were incubated at 37 °C with 5% CO2 for 24 h. For WST-1 assays, cells were seeded into 96-well plates (5 × 10^4 cells/well in 100 μL culture medium) in triplicate in serum-free RPMI 1640 medium, and measurements were taken 24 h after the treatment with the compounds. The median inhibition concentration values, IC50, were deduced through the production of a dose-response curve. All data were evaluated using GraphPad Prism 5.00 software (GraphPad Software, San Diego, CA, USA).

[5] = test system: S. aureus ATCC 29213; test: MIC, broth microdilution; type: cell-based, Staphylococcus aureus; settings: Staphylococcus aureus, ATCC29213; SA = S. aureus ATCC 29213; read-out: MICs
Procedure: (§1) The modified broth microdilution method was used for in vitro evaluation of minimum inhibitory concentration. A small portion of bacterial colony cultivated overnight onto nutrient agar (Oxoid, Basingstoke, UK) with 5% bovine blood was suspended in sterile phosphate-buffered saline to get cell density 0.5 McFarland. This inoculum was diluted to reach the final concentration of bacterial cells 5 × 10^5 CFU/mL in the wells. […] For plates with staphylococci, cation adjusted Mueller–Hinton (CaMH) broth (Oxoid) was used; enterococci were cultivated in brain heart infusion (BHI, Oxoid). […] A drug-free control and a sterility control were included. Inoculated plates were incubated in aerobic atmosphere at 37 °C overnight. […] After evaluation of MICs, 10 µL of aliquots from the wells were put onto Mueller–Hinton agar. The agar plates were cultivated at 37 °C for 24 h. The minimum bactericidal concentration (MBC) was defined as the lowest concentration of the compound that killed 99.9% of the bacteria compared to the starting inoculum.

[6] = test system: methicillin-resistant S. aureus SA 630; test: MIC, broth microdilution; type: cell-based, Staphylococcus aureus; settings: Staphylococcus aureus; MRSA2 = SA 630; read-out: MICs
Procedure: as §1

[7] = test system: methicillin-resistant S. aureus 63718; test: MIC, broth microdilution; type: cell-based, Staphylococcus aureus; settings: Staphylococcus aureus; MRSA1 = S. aureus 63718; read-out: MICs
Procedure: as §1

[8] = test system: methicillin-resistant S. aureus SA 3202; test: MIC, broth microdilution; type: cell-based, Staphylococcus aureus; settings: Staphylococcus aureus; MRSA3 = SA 3202; read-out: MICs
Procedure: as §1

[9] = test system: Candida albicans CCM 8261; test: minimum fungistatic concentration, RPMI 1640; type: cell-based; settings: CCM8261, CA = C albicans CCM 8261, 48 h
Procedure: Fungistatic activity was tested similarly in RPMI (Roswell Park Memorial Institute) 1640 medium (Sigma, Pool, UK). […] A growth control and sterility control were included. The colonies of C. albicans grown overnight on Sabourad dextrose agar were suspended in sterile phosphate-buffered saline (PBS) to get cell density 0.5 McFarland. The inoculum was diluted to get a final concentration of 10^3 CFU/mL in the wells. Plates were inoculated and cultivated at 37 °C for 48 h. The minimum fungistatic concentration was visually evaluated as the lowest concentration of a tested compound, which inhibited 100% of yeast growth. 5-Flucytosin (Sigma, UK) was used as a positive control.

[10] = test system: vancomycin-resistant enterococci VRE 725B; test: MIC, broth microdilution; type: cell-based, Enterococcus faecalis; settings: Enterococcus; VRE3 = VRE 725B; read-out: MICs
Procedure: as §1

[11] = test system: vancomycin-resistant enterococci VRE 368; test: MIC, broth microdilution; type: cell-based, Enterococcus faecalis; settings: Enterococcus; VRE2 = VRE 368; read-out: MICs
Procedure: as §1

[12] = test system: vancomycin-resistant enterococci VRE 342B; test: MIC, broth microdilution; type: cell-based, Enterococcus faecalis; settings: Enterococcus; VRE1 = VRE 342B; read-out: MICs
Procedure: as §1

[13] = test system: E. faecalis ATCC 29212; test: MIC, broth microdilution; type: cell-based, Enterococcus faecalis; settings: Enterococcus faecalis, ATCC 29212 / ATCC 29213; EF = E. faecalis ATCC 29213
Procedure: as §1

| Structure (SMILES) | MIC [5] | MIC [6] | MIC [7] | MIC [8] | MIC [9] | MIC [10] | MIC [11] | MIC [12] | MIC [13] | γ (surface tension, relative surface activity) [1] [N/m] | log ε2 (Ch-T) [2] | log kw [3] | IC50 [4] [µM] |
| --- | --- | --- | --- | --- | --- | --- | --- | --- | --- | --- | --- | --- | --- |
| CC[C@@]1(O)C(=O)OCc2c1cc1n(c2=O)Cc2cc3ccccc3nc2-1 [CMP, camptothecin, reference compound] | – | – | – | – | – | – | – | – | – | – | – | – | ~0.2 |
| O=C(O)c1cn(C2CC2)c2cc(N3CCNCC3)c(F)cc2c1=O [CPX, ciprofloxacin, reference compound] | – | > 16 µg/mL | > 16 µg/mL | > 16 µg/mL | – | – | – | – | – | – | – | – | – |
| Nc1[nH]c(=O)ncc1F [5-FC, flucytosine, reference compound] | – | – | – | – | 1 µg/mL and 7.75 µM | – | – | – | – | – | – | – | – |
| CC1(C)S[C@@H]2[C@H](NC(=O)[C@H](N)c3ccccc3)C(=O)N2[C@H]1C(=O)O [AMP, ampicillin, reference compound] | 2 µg/mL and 5.72 µM | > 16 µg/mL and > 45.8 µM | 16 µg/mL and 45.8 µM | > 16 µg/mL and > 45.8 µM | – | 2 µg/mL and 5.72 µM | – | – | – | – | – | – | > 30 |

Now from value to compound, other results behind:

| MIC [5] | MIC [6] | MIC [7] | MIC [8] | MIC [9] | MIC [10] | MIC [11] | MIC [12] | MIC [13] | Structure (SMILES) | γ (surface tension, relative surface activity) [1] [N/m] | log ε2 (Ch-T) [2] | log kw [3] | IC50 [4] [µM] |
| --- | --- | --- | --- | --- | --- | --- | --- | --- | --- | --- | --- | --- | --- |
| 64 µg/mL and 129 µM | 64 µg/mL and 129 µM | 64 µg/mL and 129 µM | 64 µg/mL and 129 µM | > 128 µg/mL and > 259 µM | 32 µg/mL and 65.1 µM | 64 µg/mL and 129 µM | 32 µg/mL and 65.1 µM | 128 µg/mL and 259 µM | CCCCOc1cccc(NC(=O)OC(CN(CCC)CCC)CN2CCCC2)c1 (stereo not shown) [1e] | 0.06316 | 4.24 | 4.0258 | 4.2 ± 0.79 |
| > 256 µg/mL and > 427 µM | > 256 µg/mL and > 427 µM | > 256 µg/mL and > 427 µM | > 256 µg/mL and > 427 µM | > 128 µg/mL and > 213 µM | > 256 µg/mL and > 427 µM | > 256 µg/mL and > 427 µM | > 256 µg/mL and > 427 µM | > 256 µg/mL and > 427 µM | CCCCOc1ccccc1NC(=O)OC(CN(CCC)CCC)CN1CCCC1 (stereo not shown) [1a] | 0.06464 | 4.19 | 3.7688 | 10.8 ± 1.11 |
| 128 µg/mL and 245 µM | 64 µg/mL and 122 µM | 32 µg/mL and 61.5 µM | 64 µg/mL and 122 µM | > 128 µg/mL and > 245 µM | 16 µg/mL and 30.7 µM | 64 µg/mL and 122 µM | 32 µg/mL and 61.5 µM | 32 µg/mL and 61.5 µM | CCCCOc1cccc(NC(=O)OC(CN(CCC)CCC)CN2CCCCCC2)c1 (stereo not shown) [1m] | 0.06298 | 4.09 | 4.7099 | 4.9 ± 0.19 |
| > 256 µg/mL and > 382 µM | > 256 µg/mL and > 382 µM | > 256 µg/mL and > 382 µM | > 256 µg/mL and > 382 µM | > 128 µg/mL and > 191 µM | > 256 µg/mL and > 382 µM | > 256 µg/mL and > 382 µM | > 256 µg/mL and > 382 µM | > 256 µg/mL and > 382 µM | CCCCCCCOc1ccccc1NC(=O)OC(CN(CCC)CCC)CN1CCCCCC1 (stereo not shown) [1l] | 0.05853 | 4.14 | 5.8966 | 29.75 ± 0.14 |
| 128 µg/mL and 239 µM | 128 µg/mL and 239 µM | 64 µg/mL and 119 µM | 256 µg/mL and 478 µM | > 128 µg/mL and > 239 µM | 16 µg/mL and 29.9 µM | 64 µg/mL and 119 µM | 32 µg/mL and 59.9 µM | 16 µg/mL and 29.9 µM | CCCCCOc1cccc(NC(=O)OC(CN(CCC)CCC)CN2CCCCCC2)c1 (stereo not shown) [1n] | 0.06154 | 4.18 | 5.2087 | 4.99 ± 0.99 |
